{"source": "paper PMC5871875", "about": "(Journal of medicinal chemistry, 2017)", "key": {"[1]": {"biological_target": "cathepsin-L (Homo sapiens, UniProt P07711)", "sequence (P07711 114-333, species assumed)": "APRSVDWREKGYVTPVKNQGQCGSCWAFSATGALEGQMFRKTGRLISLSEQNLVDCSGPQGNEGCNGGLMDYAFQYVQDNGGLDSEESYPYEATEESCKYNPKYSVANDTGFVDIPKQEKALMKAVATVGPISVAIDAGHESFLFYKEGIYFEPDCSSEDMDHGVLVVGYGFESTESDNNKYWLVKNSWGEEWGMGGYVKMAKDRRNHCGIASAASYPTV", "test": "Inhibition specificity assay, cathepsin-L", "format": "biochemical"}, "[2]": {"biological_target": "T1, AEP (Homo sapiens, UniProt Q99538)", "T1 sequence (Q99538 18-323 limits assumed)": "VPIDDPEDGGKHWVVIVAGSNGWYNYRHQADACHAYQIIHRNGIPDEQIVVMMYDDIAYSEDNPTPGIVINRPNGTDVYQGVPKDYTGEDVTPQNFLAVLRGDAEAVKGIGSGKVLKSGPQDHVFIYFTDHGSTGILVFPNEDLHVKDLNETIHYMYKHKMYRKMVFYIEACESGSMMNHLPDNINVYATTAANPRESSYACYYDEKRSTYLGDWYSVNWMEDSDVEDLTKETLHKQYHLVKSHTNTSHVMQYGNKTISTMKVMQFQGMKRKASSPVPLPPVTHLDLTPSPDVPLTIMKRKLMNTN", "test": "IC50 assay against pure AEP", "format": "biochemical"}, "[3]": {"system": "CaCo-2 cells", "test": "Caco-2 permeability assay", "format": "in vitro ADME"}, "[4]": {"biological_target": "T1, AEP", "test": "Inhibition kinetics assay of AEP"}, "[5]": {"system": "major cytochrome P450 isozymes", "conditions": "cited from earlier work"}, "[6]": {"biological_target": "T1, AEP", "test": "Time course inactivation assay of AEP", "format": "biochemical", "conditions": "nonlinear progress curves"}, "[7]": {"conditions": "in the presence or absence of NADPH; cited from earlier work"}, "[8]": {"biological_target": "T2, purified, active AEP (Homo sapiens, UniProt Q99538)", "T2 sequence (Q99538 18-323 limits assumed)": "T1 sequence (Q99538 18-323 limits assumed)", "test": "SAR analysis: residual activity of purified, active AEP", "conditions": "1 μM compound, 50 nM AEP, 5 μM substrate peptide"}, "[9]": {"system": "MDA-MB-231 cells", "test": "Cell proliferation/viability", "format": "cell-based, human", "conditions": "MDA-MB-231, doses of the MMP-2 cleavage experiment (1-10 μM)"}, "[10]": {"system": "MDA-MB-231 cells", "test": "In vivo spontaneous metastasis assay", "parameters": "species or system nude mice", "conditions": "42 days"}, "[11]": {"system": "endogenous MMP-2 cleavage", "test": "Gelatin zymography: endogenous MMP-2 cleavage in MDA-MB-231 cells", "format": "cell-based, human", "conditions": "MDA-MB-231, 1, 2, 5 and 10 μM"}, "[12]": {"test": "Toxicity observations in treated tumor-bearing mice", "format": "in vivo, nude mice", "conditions": "3 or 10 mg/kg oral, 42 days"}}, "data": [{"molecule": "Cn1c(=O)c2c(nc(S)n2C)n(C)c1=O", "note": "[38p]", "values": [{"measurement": "inhibition of cathepsin-L", "setting": "[1]", "result": "able to inhibit"}, {"measurement": "increased potency against AEP compared to compound 38", "setting": "[2]", "result": "about 2 fold"}, {"measurement": "IC50 against AEP", "setting": "[2]; 10 μM Cbz-Ala-Ala-Asn-AMC, 50 nM AEP", "result": "submicromolar"}]}, {"molecule": "Cn1c(=O)[nH]c(=O)c2c1nc(S)n2CC(O)COc1ccc(Cl)cc1", "note": "(centres unmarked) [compound 38]", "values": [{"measurement": "Caco-2 cell permeability (in words)", "setting": "[3]", "result": "minimal"}, {"measurement": "mechanism of inhibition", "setting": "[4]", "result": "competitively inhibits"}, {"measurement": "inhibition of major cytochrome P450 isozymes", "setting": "[5]", "result": "did not significantly inhibit"}, {"measurement": "binding behaviour from time course inactivation", "setting": "[6]", "result": "slow-binding inhibitor"}, {"measurement": "stability in liver microsomes", "setting": "[7]", "result": "stable"}]}, {"molecule": "Cn1c(=O)[nH]c(=O)c2c1nc(S)n2C[C@H](O)COc1ccccc1", "note": "[compound 38k]", "values": [{"measurement": "loss in activity relative to parent compound 38", "setting": "[8]", "result": "> 2", "unit": "fold"}]}, {"molecule": "CCn1c(=O)c2c(nc(S)n2C)n(C)c1=O", "note": "[compound 38u]", "values": [{"measurement": "cell viability", "setting": "[9]", "result": "not affected"}, {"measurement": "number of metastatic lung nodules", "setting": "[10]; 3 mg/kg oral gavage", "result": "significantly decreased"}, {"measurement": "lung metastasis (nodules)", "setting": "[10]; 10 mg/kg oral gavage", "result": "almost completely prevented"}, {"measurement": "mammary tumor weight or volume versus control", "setting": "[10]; 3 or 10 mg/kg oral, data not shown", "result": "no significant difference"}, {"measurement": "inhibition of cathepsin-L", "setting": "[1]", "result": "able to inhibit"}, {"measurement": "endogenous MMP-2 cleavage", "setting": "[11]", "result": "inhibited in a dose-dependent manner"}, {"measurement": "complete blood count (CBC) versus vehicle", "setting": "[12]", "result": "no significant difference"}, {"measurement": "pathological examination of major organs (kidney, liver, bone marrow)", "setting": "[12]", "result": "did not exhibit any significant amount of toxicity"}, {"measurement": "size of the liver versus vehicle", "setting": "[12]", "result": "remained similar"}, {"measurement": "size of the spleen versus control", "setting": "[12]", "result": "slight increase"}, {"measurement": "toxicity by body weight versus control", "setting": "[12]", "result": "no significant toxicity"}]}]}
